Where two headings read alike, the source gives them in different places.
Experiments:
[1] = target: T1, Endothelin, ET-A (Human) (Homo sapiens, UniProt P25101); experiment: NovaScreen assay; format: binding; details: read-out: Inhibition, 10 μM XL-647
T1 construct: NovaScreen

[2] = system: Sodium, Site 2; experiment: NovaScreen assay; format: binding
[3] = system: Adrenergic, Alpha 1, Non-selective; experiment: NovaScreen assay; format: binding
[4] = system: panel of 10 tyrosine kinases and 55 serine-threonine kinases; experiment: Kinase panel screen; format: biochemical; details: incl. insulin and IGF-1 receptor, CDKs, SAPKs, PKC isoforms
[5] = system: A431 human epidermoid carcinoma xenograft; experiment: A431 xenograft model, tumor growth; format: in vivo, mouse; details: for ED50: Mus musculus
Protocol: Female severe combined immunodeficient mice and female athymic nude mice (NCr), 5 to 8 weeks of age and weighing ˜20 to 25 g, were purchased from The Jackson Laboratory and Taconic, respectively. The animals were housed at the Exelixis vivarium facilities according to guidelines outlined by the Exelixis Institutional Animal Care and Use Committee. During all studies, animals were provided food and water ad libitum and housed in a room conditioned at 70° F. to 75° F. and 60% relative humidity.
Before treatment, H1975, A431, or MDA-MB-231 cells were harvested from exponentially growing cultures, detached by brief trypsinization, washed twice in cold HBSS, resuspended in ice-cold HBSS, and implanted either s.c. (H1975, 3×10^6 cells per mouse) or i.d. (A431, 1×10^6 cells per mouse) into the dorsal hind flank or s.c. into the mammary fat pad (MDA-MB-231, 1×10^6 cells per mouse). Palpable tumors were measured by caliper twice weekly until the mean tumor weight was in the range of ˜80 to 120 mg. Tumor weight was determined by measuring perpendicular diameters with a caliper and multiplying the measurements of diameters in two dimensions: tumor […]. Tumor weight (mg) was extrapolated from tumor volume (mm3) by assuming a conversion factor of 1. On the appropriate day after implantation, mice were grouped (10 mice per group) such that the group mean tumor weight was ˜100±15 mg. The mean tumor weight of each animal in the respective control and treatment groups was determined twice weekly during the dosing periods. Tumor xenografts were established in female mice and allowed to reach approximately 100 mg prior to treatment. An example is described in Gendreau S B, Ventura R, Keast P, et al., Inhibition of the T790M Gatekeeper Mutant of the Epidermal Growth Factor Receptor by EXEL-7647, Clin Cancer Res 3713, 13(12) (2007), which is hereby incorporated by reference.
(§1) The response of tumors to treatment was determined by comparing the mean tumor weight of the treatment group with the appropriate control group. Percentage inhibition of tumor growth was determined with the following formula: Percentage inhibition=100×[1−(Xf−Xo)/(Yf−Yo)], where Xf and Yf are the mean tumor weights of the treatment and control groups, respectively, on day f, and Xo and Yo are the mean tumor weights of treatment and control groups respectively, on day zero (staged tumor weights after grouping)

[6] = system: bpk mice
Description: The BPK model of ARPKD retains the same altered location of EGFR that is seen in murine and human ADPKD. This model is therefore widely accepted as a general means for affecting the EGFR abnormality in PKD, both ARPKD and ADPKD. The BPK model arose as a spontaneous mutation in an inbred colony of BALB/c mice. Homozygous bpk mice develop massively enlarged kidneys and die of renal failure at an average postnatal age of 24 days (PN-24). […] Extra renal manifestations include biliary proliferation and ductal ectasia. Because of the recessive nature of the disease, wild type +/+ and heterozygous bpk/+ mice are phenotypically normal. The primary measurement used in these studies is a comparison of the kidney weight to body weight ratio (KW/BW). […] Additional measurements include assessment of renal function (BUN, creatinine and MUCA) and histological evaluation of kidney size and collecting tubules-cystic index (CT-CI).
These animals were housed in Medical College of Wisconsin vivarium facilities. All animal experiments were conducted in accordance with policies of the NIH Guide for the Care and Use of Laboratory Animals and the Institutional Animal Care and Use Committee of the Medical College of Wisconsin.
Animals were treated from PN-7 through PN-21 and evaluated for extent of disease. The identity of […] animals can be readily determined post-mortem by the presence of greatly enlarged kidneys. On PN-21, the study was terminated and animals were sacrificed. The mass of each animal was determined. Both kidneys from each animal were excised and weighed. The kidney weight to body weight ratio (KW/BW) was determined by the following formula: KW/BW=[mass of both kidneys]/[mass of animal].
In addition, renal cystic index (CI) was calculated. Lectins specific to the proximal tubules (PTs) (lotus tetragonolobus [LTA]) and collecting tubules (CTs) (Dolichos biflorus agglutins [DBA]) were stained and used to assess severity of cystic dilations on a scale from 0-5. Renal function was assessed by obtaining BUN and creatinine levels via cardiac puncture. MUCA was measured after keeping the animals without water for 12 hrs.

[7] = system: HN5 human tumor xenograft; experiment: HN5 xenograft, tumor growth; format: in vivo; details: Mus musculus; qd × 14
Protocol: as §1

[8] = 7.5 mg/kg/day, PN Day 21, 7.5 mg/kg/day
[9] = 7.5 mg/kg/day, PN Day 21, listed as PRIM-001, 7.5 mg/kg/day

T1 sequence (P25101 21-427): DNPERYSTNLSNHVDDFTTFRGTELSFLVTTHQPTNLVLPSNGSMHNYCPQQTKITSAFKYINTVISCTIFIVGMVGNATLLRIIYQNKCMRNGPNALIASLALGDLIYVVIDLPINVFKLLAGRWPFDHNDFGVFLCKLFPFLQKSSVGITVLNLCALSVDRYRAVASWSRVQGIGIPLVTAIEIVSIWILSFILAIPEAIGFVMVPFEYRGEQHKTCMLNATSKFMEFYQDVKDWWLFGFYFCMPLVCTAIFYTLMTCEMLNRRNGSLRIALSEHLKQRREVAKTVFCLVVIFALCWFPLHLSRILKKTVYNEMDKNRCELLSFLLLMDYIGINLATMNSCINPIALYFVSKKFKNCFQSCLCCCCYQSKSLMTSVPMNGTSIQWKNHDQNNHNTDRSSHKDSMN

COc1cc2c(Nc3ccc(Cl)c(Cl)c3F)ncnc2cc1OC[C@@H]1C[C@@H]2CN(C)C[C@@H]2C1 [XL-647, N-(3,4-dichloro-2-fluorophenyl)-7-({[(3aR,5r,6aS)-2-methyloctahydrocyclopenta[c]pyrrol-5-yl]methyl}oxy)-6-(methyloxy)quinazolin-4-amine]
inhibition at 10 µM [1]: -11.1%
Inhibition, 10 μM XL-647 [2]: 88.06%
Inhibition, 10 μM XL-647 [3]: 49.40%
activity against kinase panel, in words [4]: inactive
tumor growth inhibition ([5]; 10 mg/kg/day oral, 14 days): 65%
final tumor weight (marked regression) ([5]; 100 mg/kg/day oral, 14 days, starting weight 109±20 mg): 36 ± 15 mg
tumor growth, in words ([5]; 10, 30, and 100 mg/kg/day oral, 14 days): significantly inhibited tumor growth in a dose dependent manner
ED50 ([5]; A-431, qd × 14): 5.9 mg/kg
ED50 ([5]; A-431, qd × 28): 3.8 mg/kg
decrease of CT-CI ([6]; 7.5 mg/kg q.d.): 25%
decrease of KW/BW ([6]; 7.5 mg/kg q.d.): 21.5%
decrease of creatinine ([6]; 7.5 mg/kg q.d.): 8.3%
improvement of MUCA ([6]; 7.5 mg/kg q.d.): 20.1%
reduction of kidney weight ([6]; 7.5 mg/kg q.d.): 21.8%
decrease of BUN ([6]; 7.5 mg/kg q.d., 7.5 mg/kg): 42%
BUN ([6]; 7.5 mg/kg/day, PN Day 21): 63.43 mg/dL
CT-CI ([6]; 7.5 mg/kg/day, PN Day 21): 3.60
Creatinine ([6]; 7.5 mg/kg/day, PN Day 21): 0.44 mg/dL
MUCA ([6]; 7.5 mg/kg/day, PN Day 21): 560.0 mOsmol
Kidney Weight [6, 8]: 1.61 ± 0.23 g
Kidney/Body weight [6, 8]: 15.34±1.26%
Kidney Weight [6, 9]: 1.61 g
Kidney/Body weight [6, 9]: 15.34%
decrease of BUN ([6]; 15 mg/kg q.d.): 60.5%
decrease of CT-CI ([6]; 15 mg/kg q.d.): 45.8%
decrease of creatinine ([6]; 15 mg/kg q.d.): 25%
improvement of MUCA ([6]; 15 mg/kg q.d.): 66.2%
reduction of kidney weight ([6]; 15 mg/kg q.d.): 40.3%
BUN ([6]; 15 mg/kg/day, PN Day 21): 43.20 mg/dL
CT-CI ([6]; 15 mg/kg/day, PN Day 21): 2.60
Creatinine ([6]; 15 mg/kg/day, PN Day 21): 0.36 mg/dL
Kidney/Body weight ([6]; 15 mg/kg/day, PN Day 21): 12.36%
MUCA ([6]; 15 mg/kg/day, PN Day 21): 775.0 mOsmol
Kidney Weight ([6]; 15 mg/kg/day, PN Day 21, 15 mg/kg/day): 1.28 ± 0.09 g
Kidney Weight ([6]; 15 mg/kg/day, PN Day 21, listed as PRIM-001, 15 mg/kg/day): 1.28 g
ED50 [7]: < 3 mg/kg

From patent publication US9364479B2, “Use of a receptor-type kinase modulator for treating polycystic kidney disease” (SYMPHONY EVOLUTION, INC., priority 2010, dated 2016)
